Assay results taken from patent US6107317A, “N-(substituted glycyl)-thiazolidines, pharmaceutical compositions containing them and their use in inhibiting dipeptidyl peptidase-IV” (Novartis AG, priority 1999, dated 2000).
pIC50: −log10 of the molar value. Counter-ions that a name gives are not always drawn.

Assays:
rat plasma DPP-IV = biological target: T1, rat plasma DPP-IV (Rattus norvegicus, UniProt P14740); assay: DPP-IV activity in rat plasma; format: biochemical; conditions: substrate H-Glycine-Proline-AMC, pH 7.8, room temperature, 20 min
T1 construct: DPP-IV activity in human and rat plasma; from tissue; host or cells: rat plasma
T1 sequence (P14740 37-767 limits assumed): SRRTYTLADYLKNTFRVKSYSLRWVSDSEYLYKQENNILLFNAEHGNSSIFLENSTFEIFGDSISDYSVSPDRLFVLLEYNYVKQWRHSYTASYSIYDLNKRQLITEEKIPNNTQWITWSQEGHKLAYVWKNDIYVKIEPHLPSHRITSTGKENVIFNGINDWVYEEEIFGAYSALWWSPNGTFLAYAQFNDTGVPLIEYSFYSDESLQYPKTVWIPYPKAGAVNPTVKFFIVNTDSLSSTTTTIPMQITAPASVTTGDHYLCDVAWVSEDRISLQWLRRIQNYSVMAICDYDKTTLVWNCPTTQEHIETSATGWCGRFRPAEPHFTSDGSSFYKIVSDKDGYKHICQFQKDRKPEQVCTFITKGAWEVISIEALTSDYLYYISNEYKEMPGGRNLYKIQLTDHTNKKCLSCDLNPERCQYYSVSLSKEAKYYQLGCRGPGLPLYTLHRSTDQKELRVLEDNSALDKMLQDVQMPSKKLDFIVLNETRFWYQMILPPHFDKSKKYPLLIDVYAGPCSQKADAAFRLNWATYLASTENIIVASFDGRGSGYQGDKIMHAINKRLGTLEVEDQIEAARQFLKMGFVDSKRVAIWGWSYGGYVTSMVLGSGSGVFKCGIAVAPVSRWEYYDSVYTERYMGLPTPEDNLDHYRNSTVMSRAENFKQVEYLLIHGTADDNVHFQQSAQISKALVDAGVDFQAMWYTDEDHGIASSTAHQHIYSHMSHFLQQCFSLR
Protocol: (§1) Briefly, five μl of plasma are added to 96-well flat-bottom mictotiter plates (Falcon), followed by the addition of 5 μl of 80 mM MgCl2 in incubation buffer (25 mM HEPES, 140 mM NaCl, 1% RIA-grade BSA, pH 7.8). After a 5 min. incubation at room temperature, the reaction is initiated by the addition of 10 μl of incubation buffer containing 0.1 mM substrate (H-Glycine-Proline-AMC; AMC is 7-amino-4-methylcoumarin). The plates are covered with aluminum foil (or kept in the dark) and incubated at room temperature for 20 min. […] A fluorescence-concentration curve of free AMC is generated using 0-50 μM solutions of AMC in assay buffer. The curve generated is linear and is used for interpolation of substrate consumption (catalytic activity in nmoles substrate cleaved/min). As with the previous assay, the potency of the test compounds as DPP-IV inhibitors, expressed as IC50, is calculated from 8-point, dose-response curves using a 4 parameter logistic function.

human plasma DPP-IV = biological target: T2, human plasma DPP-IV (Homo sapiens, UniProt P27487); assay: DPP-IV activity in human plasma; format: biochemical; conditions: substrate H-Glycine-Proline-AMC, pH 7.8, room temperature, 20 min
T2 construct: DPP-IV activity in human and rat plasma; from tissue; host or cells: human plasma
T2 sequence (P27487 39-766 limits assumed): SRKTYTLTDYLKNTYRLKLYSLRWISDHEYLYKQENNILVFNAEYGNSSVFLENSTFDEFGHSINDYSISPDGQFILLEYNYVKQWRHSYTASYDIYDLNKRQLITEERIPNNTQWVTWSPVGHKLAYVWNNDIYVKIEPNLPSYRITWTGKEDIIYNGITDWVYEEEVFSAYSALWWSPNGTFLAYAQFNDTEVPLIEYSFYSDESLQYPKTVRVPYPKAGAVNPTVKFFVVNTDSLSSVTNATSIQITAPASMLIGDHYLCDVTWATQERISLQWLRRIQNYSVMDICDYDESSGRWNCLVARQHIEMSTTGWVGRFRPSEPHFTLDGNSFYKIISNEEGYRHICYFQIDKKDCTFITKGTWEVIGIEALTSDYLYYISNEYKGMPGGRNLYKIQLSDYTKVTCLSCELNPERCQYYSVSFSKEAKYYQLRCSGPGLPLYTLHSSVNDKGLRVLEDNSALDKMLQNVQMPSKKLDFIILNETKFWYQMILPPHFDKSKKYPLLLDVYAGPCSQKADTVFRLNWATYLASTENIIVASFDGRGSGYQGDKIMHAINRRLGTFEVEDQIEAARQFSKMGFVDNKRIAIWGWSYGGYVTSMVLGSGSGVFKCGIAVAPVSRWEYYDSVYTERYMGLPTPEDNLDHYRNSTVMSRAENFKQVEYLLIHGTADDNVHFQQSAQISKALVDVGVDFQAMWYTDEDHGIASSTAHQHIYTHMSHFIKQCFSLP
Protocol: as §1

DPP-IV = biological target: T3, DPP-IV (Homo sapiens, UniProt P27487); assay: Caco-2 DPP-IV Assay (inhibition of DPP-IV activity from human colonic carcinoma cell extracts); format: biochemical; conditions: solubilized Caco-2 protein 20 μg; substrate H-Alanine-Proline-pNA; pH 7.4; room temperature, 10 minutes
T3 construct: host or cells: Caco-2, differentiated to induce DPP-IV expression; cell extract solubilized in 0.5% nonidet-P40
T3 sequence (P27487 whole entry): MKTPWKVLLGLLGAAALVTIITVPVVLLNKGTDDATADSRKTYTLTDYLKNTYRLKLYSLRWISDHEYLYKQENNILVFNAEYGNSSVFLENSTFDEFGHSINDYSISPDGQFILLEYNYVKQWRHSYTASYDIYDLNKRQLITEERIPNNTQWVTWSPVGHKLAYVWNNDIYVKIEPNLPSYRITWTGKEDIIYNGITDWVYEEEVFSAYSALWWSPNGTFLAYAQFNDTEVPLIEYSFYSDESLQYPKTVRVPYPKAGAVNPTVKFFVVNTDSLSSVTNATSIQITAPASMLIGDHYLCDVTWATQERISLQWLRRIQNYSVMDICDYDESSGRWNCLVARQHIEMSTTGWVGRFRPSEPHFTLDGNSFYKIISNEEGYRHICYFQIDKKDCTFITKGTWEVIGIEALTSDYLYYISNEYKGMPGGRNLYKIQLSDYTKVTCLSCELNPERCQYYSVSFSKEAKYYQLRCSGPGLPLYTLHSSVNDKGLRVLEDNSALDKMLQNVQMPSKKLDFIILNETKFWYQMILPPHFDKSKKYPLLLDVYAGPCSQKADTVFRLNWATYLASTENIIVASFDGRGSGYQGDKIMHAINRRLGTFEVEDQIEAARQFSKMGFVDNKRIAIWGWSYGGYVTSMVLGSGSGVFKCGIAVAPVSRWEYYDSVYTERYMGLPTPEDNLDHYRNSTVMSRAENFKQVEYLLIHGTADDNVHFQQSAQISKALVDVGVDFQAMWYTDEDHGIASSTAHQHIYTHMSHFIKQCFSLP
Protocol: The human colonic carcinoma cell line Caco-2 was obtained from the American Type Culture Collection (ATCC HTB 37). Differentiation of the cells to induce DPP-IV expression was accomplished as described by Reisher, et al. in an article entitled "Increased expression of . . . intestinal cell line Caco-2" in Proc. Natl. Acad. Sci., Vol. 90, pgs. […] Cell extract is prepared from cells solubilized in 10 mM Tris-HCl, 0.15 M NaCl, 0.04 t.i.u. aprotinin, 0.5% nonidet-P40, pH 8.0, which is centrifuged at 35,000 g for 30 min. at 4° C. to remove cell debris. The assay is conducted by adding 20 μg solubilized Caco-2 protein, diluted to a final volume of 125 μl in assay buffer (25 mM Tris-HCl pH 7.4, 140 mM NaCl, 10 mM KCl, 1% bovine serum albumin) to microtiter plate wells. The reaction is initiated by adding 25μl of 1 mM substrate (H-Alanine-Proline-pNA; pNA is p-nitroaniline). The reaction is run at room temperature for 10 minutes after which time a 19 μl volume of 25% glacial acetic acid is added to stop the reaction. […] A standard curve of free p-nitroaniline is generated using 0-500 μM solutions of free pNA in assay buffer. The curve generated is linear and is used for interpolation of substrate consumption (catalytic activity in nmoles substrate cleaved/min). […] The potency of the test compounds as DPP-IV inhibitors, expressed as IC50, is calculated from 8-point, dose-response curves using a 4-parameter logistic function.

[1] = diabetic and non-diabetic subjects, Diabetes, Vol. 44, pgs. 1126-1131; cited from earlier work

| Molecule | pIC50 (rat plasma DPP-IV) | pIC50 (human plasma DPP-IV) | pIC50 (DPP-IV) | degradation when administered by subcutaneous or intravenous routes [1] |
| --- | --- | --- | --- | --- |
| O=C(CNCCNc1ccccn1)N1CCSC1 [Ex. 1, 1-[2-[(pyridin-2-yl)amino]ethylamino]acetylthiazolidine dihydrochloride] | 4.98 | 5.17 | 4.99 |  |
| O=C(CNC1(CO)CCCC1)N1CCSC1 [Ex. 2, 1-[(1-hydroxymethylcyclopent-1-yl)amino]acetylthiazolidine hydrochloride] | 5.48 | 5.24 | 4.60 |  |
| GLP-I amide: GLP-I amide |  |  |  | rapidly degraded |
| O=C(CNCCNc1ccc(Cl)cn1)N1CCSC1 [Ex. 4, 1-[2-[(5-chloropyridin-2-yl)amino]ethylamino]acetylthiazolidine] | 5.15 | 4.68 | 4.51 |  |
